pIC50: −log10 of the molar value. “And” between values parts separate entries of the source, which are not always exact repeats. Identical values can stand only once.
Test system: 439559-082-T-J2-PDC spheroid viability
Assay: Anticancer human tumor 439559-082-T-J2-PDC patient-derived colon adenocarcinoma cell line growth inhibition [POLQ]
Details: spheroids with HUVEC and MSC; for viability, T/C: stronger effect = lower value
Description: Multicellular complex tumor spheroid response to Polymerase (POL) inhibitors (novobiocin, ART-558, RP6685) in combination with a variety of drugs and investigational agents in selected tumor cell lines
The POL inhibitors (novobiocin, ART-558, and RP6685) were evaluated both individually and in combination with standard of care and investigational anticancer small molecules within a complex spheroid model of solid tumors. . Complex spheroids include a stromal component modeled by human endothelial cells (HUVEC) and fibroblasts modeled by human mesenchymal stem cells (MSCs). The concentration ranges selected for each drug and investigational agent were based upon clinically achievable concentrations if the clinical Cmax of the agent was known.
Compounds. The drugs and investigational agents: novobiocin (NSC847541), ART-558 (NSC835418), RP-6685 (NSC848927), peposertib (NSC802822), ceralasertib (NSC780249), elimusertib (NSC800525), camonsertib (NSC841442), AZD-1390 (NSC803789), olaparib (NSC753686), talazoparib (NSC767125), rucaparib (NSC756644), sotorasib (NSC818433), MRTX-1133 (NSC836407), SN-38 (NSC673596), topotecan (NSC609699), epotoside (NSC141540), doxorubicin (NSC123127), gemcitabine (NSC613327), 5-fluorouracil (NSC19893), paclitaxel (NSC125973), vemurafenib (NSC761431), MSA-2 (NSC828583), SN-011 (NSC837082), adavosertib (NSC754352), prexasertib (NSC758257), carboplatin (NSC241240) and oxaliplatin (NSC266046), were obtained from the National Cancer Institute (NCI) Developmental Therapeutics Program Chemical Repository (21). The FDA-approved anticancer drug set is available from the Developmental Therapeutics Program at https://dtp.cancer.gov/organization/dscb/obtaining/. […] The stock solutions were prepared in dimethyl sulfoxide (DMSO, Sigma-Aldrich, St. Louis, MO, cat. D2650), except for the platinum compounds which were prepared in saline (Quality Biological, Gaithersburg, MD, cat. 114-055-101), at 800-fold the tested concentration and stored at -70 degrees C prior to their use. All drugs and investigational agents were tested over a range starting from a high concentration at or near the clinical Cmax and decreasing in half-log increments. If the clinical Cmax for an agent had not been determined, the highest concentration tested was 10 microM, except for SN-38, which was tested at a high concentration of 1 microM.
Cell Culture. All cells were maintained in an incubator at 37 degrees C and 5% CO2 with 95% humidity. The PDC lines were cultured according to standard operating procedures established by the NCI PDMR (https://pdmr.cancer.gov). Table 3 of the manuscript, lists the cell lines along with the number of the three cell types plated to form the mct-spheroids and media for tumor cell growth. After thawing, all PDC lines, except 997537-175-T-J1-PDC and 415267-285-R-J2-PDC, were cultured in Matrigel-coated flasks prepared with a working solution of 1X Ham's F-12 nutrient mix, without supplementation (Thermo Fisher Scientific, cat. 11765054), 100 U/mL penicillin-streptomycin (Thermo Fisher Scientific, cat. 15140122), and 2.5% Matrigel (Corning Inc., Corning, NY, cat. 354248) for the first three passages. The two PDC lines 997537-175-T-J1-PDC and 415267-285-R-J2-PDC were cultured on uncoated flasks. The 857933-349-R-J2-PDC line was cultured in 6C/Colon 1B media containing advanced DMEM/F-12 (Thermo Fisher Scientific, cat. 12634028), 10 mM HEPES (Thermo Fisher Scientific, cat. 15630080), 1X GlutaMAX supplement (Thermo Fisher Scientific, cat. 35050061), 0.1 mg/mL primocin (InvivoGen, San Diego, CA, cat. ant-pm-2), 10% defined fetal bovine serum, heat inactivated (HyClone Laboratories Inc., Logan, UT, cat. SH30070.03HI), 50% L-WRN conditioned media (ATCC, cat. CRL-3276), 1.25 mM N-Acetyl-L-cysteine (Sigma-Aldrich, cat. A9165), 10 mM nicotinamide (Sigma-Aldrich, cat. N0636), 1X B-27 supplement (Thermo Fisher Scientific, cat. 17504044), 1X N-2 supplement (Thermo Fisher Scientific, cat. […]
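Further: spheroids exposed to compounds for seven days before readout.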
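Wherever viability, T/C is given: 100% = DMSO vehicle control viability.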

Cn1ncnc1[C@H]1c2n[nH]c(=O)c3cc(F)cc(c23)N[C@@H]1c1ccc(F)cc1 was tested, and the viability, T/C (compound 0.000316 µM) was 101% and 102% and 94.5%, the viability, T/C (compound 0.001 µM) was 100% (2×) and 86.2% and the viability, T/C (compound 0.00316 µM) was 94.4% and 97.9% and 97.8%. For the same molecule, the viability, T/C (compound 0.01 µM) was 96.7% and 93.2% and 100%, the viability, T/C (compound 0.0316 µM) was 97.2% and 98.5% and 107% and the viability, T/C (compound 0.1 µM) was 97.3% and 95.7% and 88.3%. For the same molecule, the pIC50 (curve of compound) was < 7.00.
